{"source": "patent US6924099B1", "about": "“Biomarkers and assays for carcinogenesis” (G.D. Searle & Co., priority 1999, dated 2005)", "key": {"[1]": {"test_system": "rat liver mRNA", "experiment": "RT-PCR of mRNAs for three phenobarbital-induced genes", "details": "oral gavage 200 mg/kg, 88 days or 5 days", "description": "Specifically, rats were treated by oral gavage for 88 days in the 13 week experiment, or for 5 days with 200 mg/kg phenobarbital or control vehicle."}, "[2]": {"test_system": "cellular mRNAs in rat liver", "experiment": "AFLP-based Transcript Imaging of liver mRNAs of phenobarbital-treated rats", "assay_type": "in vivo", "details": "for Fold Change AFLP: 13 weeks phenobarbital 200 mg/kg oral gavage", "description": "Rats were treated with phenobarbital for thirteen weeks or in a separate experiment, for 5 days. Liver mRNAs were extracted and probed for those mRNAs specifically altered by phenobarbital treatment by comparing with mRNA expression in untreated rats. The relative abundance of cellular mRNAs in rat liver was determined using PE GenScope's AFLP (Amplified Fragment Length Polymorphism)-based Transcript Imaging technology. The mRNA is converted into double-stranded cDNA, which is then cut with restriction enzymes. The resulting restriction fragments are tagged with specific adapters of known sequences, which allows for subsequent amplification of the fragments under highly stringent conditions. Similar technology has been used in plants (Money. T. et al., Nucleic Acids Res. 24:2616-2617 (1996), incorporated by reference in its entirety)."}, "[3]": {"test_system": "rat liver mRNA", "experiment": "Validation of AFLP biomarkers by rt-PCR (Taqman) in liver of phenobarbital-treated rats", "assay_type": "in vivo", "details": "for Fold Change 2-week: 2 weeks phenobarbital; for Fold Change 13-week: 13 weeks phenobarbital 200 mg/kg oral gavage", "description": "After AFLP experiments were conducted, and results analyzed, the effects of phenobarbital on the expression of several biomarkers were validated. RNA was extracted from the same liver samples used in the AFLP study, in addition to liver samples from rats treated with phenobarbital for 2-weeks, followed by reverse transcription reactions to generate cDNA, followed by PCR, using Taqman technology. The genes analyzed for phenobarbital-induced alterations, and the corresponding AFLP sequence numbers are listed in Table 5, and a graph and a chart of the actual results are in Table 6 and FIG. 1.\nEleven of the 17 (65%) genes analyzed were also determined to be differentially expressed using rt-PCR. However, this is based on comparisons at the same timepoint (13 weeks). When the rt-PCR analyses performed on the 2 week samples are considered, another marker (S-033) is found to be differentially expressed. Theoretically, differences in sensitivity and or specificity between the two techniques could be accounted for these minor discrepancies. However, S-033 is an example of how AFLP has identified biomarkers which are optimal for carcinogen detection at timepoints other than 13 weeks."}, "[4]": {"details": "SEQ NO. 4 (Rat aldehyde dehydrogenase) mRNA"}, "[5]": {"details": "SEQ NO. 10 (Rat vitamin D-binding protein) mRNA"}, "[6]": {"details": "SEQ NO. 25 (Rat cytochrome B) mRNA"}, "[7]": {"details": "SEQ NO. 34 (Rat liver catalase) mRNA"}, "[8]": {"details": "SEQ NO. 38 (Rat alpha-2u globulin) mRNA"}, "[9]": {"details": "SEQ NO. 40 (Rat NADP-dep.isocitrate dehydrogenase) mRNA"}, "[10]": {"details": "SEQ NO. 42 (Mouse JAK1 (protein tyrosine kinase)) mRNA"}, "[11]": {"details": "SEQ NO. 46 (Rat cathepsin B) mRNA"}, "[12]": {"details": "SEQ NO. 52 ((s)-2-hydroxy acid oxidase) mRNA"}, "[13]": {"details": "SEQ NO. 92 (Rat nicotinic receptor alpha 7 subunit) mRNA"}, "[14]": {"details": "SEQ NO. 114 (Rat delta-aminolevulinate synthase) mRNA"}, "[15]": {"details": "SEQ NO. 116 (Estrogen sulfotransferase) mRNA"}, "[16]": {"details": "SEQ NO. 129 (Glutathione S-transferase) mRNA"}, "[17]": {"details": "SEQ NO. 230 (Rat carboxylesterase) mRNA"}}, "data": [{"compound": "CCC1(c2ccccc2)C(=O)NC(=O)NC1=O", "note": "[phenobarbital]", "values": [{"measurement": "Average expression level of P450 2B1 mRNA as compared to control rats", "setting": "[1]", "result": "substantial induction"}, {"measurement": "Down-regulation of the sequences of Table 3 (SEQ NO 419-457)", "setting": "[2]; 5 weeks of treatment", "result": "at least 1.7 fold"}, {"measurement": "Up-regulation of the sequences of Table 4 (SEQ NO 458-489)", "setting": "[2]; 5 weeks of treatment", "result": "at least 1.7 fold"}, {"measurement": "Down-regulation of the sequences of Table 1 (SEQ NO 275-318)", "setting": "[2]; 13 weeks of treatment", "result": "at least 1.7 fold"}, {"measurement": "Up-regulation of the sequences of Table 2 (SEQ NO 319-418)", "setting": "[2]; 13 weeks of treatment", "result": "at least 1.7 fold"}, {"measurement": "Fold Change AFLP", "setting": "[2]; SEQ NO. 3 (Rat P-450) mRNA", "result": 2.3, "unit": "fold"}, {"measurement": "Fold Change AFLP", "setting": "[2]; [4]", "result": 8.2, "unit": "fold"}, {"measurement": "Fold Change AFLP", "setting": "[2]; SEQ NO. 6 (Rat UDPGT1.1) mRNA", "result": 4.6, "unit": "fold"}, {"measurement": "Fold Change AFLP", "setting": "[2]; [5]", "result": 1.7, "unit": "fold"}, {"measurement": "Fold Change AFLP", "setting": "[2]; [6]", "result": 4.2, "unit": "fold"}, {"measurement": "Fold Change AFLP", "setting": "[2]; [7]", "result": 16, "unit": "fold"}, {"measurement": "Fold Change AFLP", "setting": "[2]; [8]", "result": 0.04, "unit": "fold"}, {"measurement": "Fold Change AFLP", "setting": "[2]; [9]", "result": 2.5, "unit": "fold"}, {"measurement": "Fold Change AFLP", "setting": "[2]; [10]", "result": 1.9, "unit": "fold"}, {"measurement": "Fold Change AFLP", "setting": "[2]; [11]", "result": 2.3, "unit": "fold"}, {"measurement": "Fold Change AFLP", "setting": "[2]; [12]", "result": 0.3, "unit": "fold"}, {"measurement": "Fold Change AFLP", "setting": "[2]; [13]", "result": 6.3, "unit": "fold"}, {"measurement": "Fold Change AFLP", "setting": "[2]; [14]", "result": 3.8, "unit": "fold"}, {"measurement": "Fold Change AFLP", "setting": "[2]; [15]", "result": 0.32, "unit": "fold"}, {"measurement": "Fold Change AFLP", "setting": "[2]; [16]", "result": 4, "unit": "fold"}, {"measurement": "Fold Change AFLP", "setting": "[2]; SEQ NO. 179 (Rat UDPGT) mRNA", "result": 10.5, "unit": "fold"}, {"measurement": "Fold Change AFLP", "setting": "[2]; [17]", "result": 1.3, "unit": "fold"}, {"measurement": "Fold Change 2-week", "setting": "[3]; SEQ NO. 3 (Rat P-450) mRNA", "result": 1.34, "unit": "fold"}, {"measurement": "Fold Change 13-week", "setting": "[3]; SEQ NO. 3 (Rat P-450) mRNA", "result": 1.85, "unit": "fold"}, {"measurement": "Fold Change 2-week", "setting": "[3]; [4]", "result": 16.36, "unit": "fold"}, {"measurement": "Fold Change 13-week", "setting": "[3]; [4]", "result": 12.88, "unit": "fold"}, {"measurement": "Fold Change 2-week", "setting": "[3]; SEQ NO. 6 (Rat UDPGT1.1) mRNA", "result": 0.93, "unit": "fold"}, {"measurement": "Fold Change 13-week", "setting": "[3]; SEQ NO. 6 (Rat UDPGT1.1) mRNA", "result": 1.5, "unit": "fold"}, {"measurement": "Fold Change 2-week", "setting": "[3]; [5]", "result": 0.66, "unit": "fold"}, {"measurement": "Fold Change 13-week", "setting": "[3]; [5]", "result": 0.79, "unit": "fold"}, {"measurement": "Fold Change 2-week", "setting": "[3]; [6]", "result": 1.85, "unit": "fold"}, {"measurement": "Fold Change 13-week", "setting": "[3]; [6]", "result": 0.75, "unit": "fold"}, {"measurement": "Fold Change 2-week", "setting": "[3]; [7]", "result": 0.79, "unit": "fold"}, {"measurement": "Fold Change 13-week", "setting": "[3]; [7]", "result": 0.45, "unit": "fold"}, {"measurement": "Fold Change 2-week", "setting": "[3]; [8]", "result": 0.35, "unit": "fold"}, {"measurement": "Fold Change 13-week", "setting": "[3]; [8]", "result": 0.03, "unit": "fold"}, {"measurement": "Fold Change 2-week", "setting": "[3]; [9]", "result": 0.88, "unit": "fold"}, {"measurement": "Fold Change 13-week", "setting": "[3]; [9]", "result": 1.14, "unit": "fold"}, {"measurement": "Fold Change 2-week", "setting": "[3]; [10]", "result": 0.8, "unit": "fold"}, {"measurement": "Fold Change 13-week", "setting": "[3]; [10]", "result": 0.83, "unit": "fold"}, {"measurement": "Fold Change 2-week", "setting": "[3]; [11]", "result": 0.87, "unit": "fold"}, {"measurement": "Fold Change 13-week", "setting": "[3]; [11]", "result": 1.41, "unit": "fold"}, {"measurement": "Fold Change 2-week", "setting": "[3]; [12]", "result": 0.31, "unit": "fold"}, {"measurement": "Fold Change 13-week", "setting": "[3]; [12]", "result": 0.09, "unit": "fold"}, {"measurement": "Fold Change 2-week", "setting": "[3]; [13]", "result": 0.45, "unit": "fold"}, {"measurement": "Fold Change 13-week", "setting": "[3]; [13]", "result": 0.72, "unit": "fold"}, {"measurement": "Fold Change 2-week", "setting": "[3]; [14]", "result": 1.22, "unit": "fold"}, {"measurement": "Fold Change 13-week", "setting": "[3]; [14]", "result": 4.03, "unit": "fold"}, {"measurement": "Fold Change 2-week", "setting": "[3]; [15]", "result": 0.81, "unit": "fold"}, {"measurement": "Fold Change 13-week", "setting": "[3]; [15]", "result": 0.15, "unit": "fold"}, {"measurement": "Fold Change 2-week", "setting": "[3]; [16]", "result": 2.52, "unit": "fold"}, {"measurement": "Fold Change 13-week", "setting": "[3]; [16]", "result": 4.03, "unit": "fold"}, {"measurement": "Fold Change 2-week", "setting": "[3]; SEQ NO. 179 (Rat UDPGT) mRNA", "result": 14.11, "unit": "fold"}, {"measurement": "Fold Change 13-week", "setting": "[3]; SEQ NO. 179 (Rat UDPGT) mRNA", "result": 9.05, "unit": "fold"}, {"measurement": "Fold Change 2-week", "setting": "[3]; [17]", "result": 4.24, "unit": "fold"}, {"measurement": "Fold Change 13-week", "setting": "[3]; [17]", "result": 5.74, "unit": "fold"}]}]}
